Several values for one entry are separate records, joined by “and”; a condition that tells them apart may be missing. Equal entries are not always repeated. Toxic doses and inconclusive results are not listed.
Tested on: P388 leukemia ip, CD2F1 mice, survival T/C
Experiment: NCI In Vivo Anticancer Drug Screen. Data for tumor model P388 Leukemia (intraperitoneal) in CD2F1 (CDF1) mice
Details: endpoint: median survival time, higher = longer survival
Summary of the method: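 Mice carrying the transplanted tumor received test compound or vehicle. Survival was recorded in each group, and the value is the treated-group measurement divided by that of the vehicle-treated control group.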

[1] = dose: 50.0 mg/kg/injection, schedule: Q01DX009 (ip), vehicle: saline with Tween-80
[2] = dose: 100.0 mg/kg/injection, schedule: Q01DX009 (ip), vehicle: saline with Tween-80
[3] = dose: 25.0 mg/kg/injection, schedule: Q01DX009 (ip), vehicle: saline with Tween-80
[4] = dose: 50.0 mg/kg/injection, schedule: Q01DX009 (ip), vehicle: suspension in saline
[5] = dose: 60.0 mg/kg/injection, schedule: Q01DX005 (ip), vehicle: Klucel (hydroxypropylcellulose) (HPC)
[6] = dose: 120.0 mg/kg/injection, schedule: Q01DX005 (ip), vehicle: Klucel (hydroxypropylcellulose) (HPC)
[7] = dose: 240.0 mg/kg/injection, schedule: Q01DX005 (ip), vehicle: Klucel (hydroxypropylcellulose) (HPC)

## Nc1ncnc2nc[nH]c12
dose: 16.0 mg/kg/injection, schedule: Q01DX009 (ip), vehicle: Klucel (hydroxypropylcellulose) (HPC)
  T/C: 100 % of control
dose: 32.0 mg/kg/injection, schedule: Q01DX009 (ip), vehicle: Klucel (hydroxypropylcellulose) (HPC)
  T/C: 103 % of control and 108 % of control and 109 % of control
dose: 32.0 mg/kg/injection, schedule: Q01DX009 (ip), vehicle: saline with Tween-80
  T/C: 106 % of control and 118 % of control
[1]
  T/C: 99 % of control
dose: 64.0 mg/kg/injection, schedule: Q01DX009 (ip), vehicle: Klucel (hydroxypropylcellulose) (HPC)
  T/C: 106 % of control
dose: 64.0 mg/kg/injection, schedule: Q01DX009 (ip), vehicle: saline with Tween-80
  T/C: 111 % of control and 97 % of control
[2]
  T/C: 114 % of control
dose: 128.0 mg/kg/injection, schedule: Q01DX009 (ip), vehicle: Klucel (hydroxypropylcellulose) (HPC)
  T/C: 110 % of control
dose: 128.0 mg/kg/injection, schedule: Q01DX009 (ip), vehicle: saline with Tween-80
  T/C: 100 % of control and 108 % of control
dose: 200.0 mg/kg/injection, schedule: Q01DX009 (ip), vehicle: saline with Tween-80
  T/C: 110 % of control
dose: 256.0 mg/kg/injection, schedule: Q01DX009 (ip), vehicle: Klucel (hydroxypropylcellulose) (HPC)
  T/C: 88 % of control
dose: 256.0 mg/kg/injection, schedule: Q01DX009 (ip), vehicle: saline with Tween-80
  T/C: 118 % of control

## C=C(C)c1nc(N)nc(NC)n1
dose: 100.0 mg/kg/injection, schedule: Q04DX002 (ip), vehicle: Klucel (hydroxypropylcellulose) (HPC)
  T/C: 98 % of control
dose: 200.0 mg/kg/injection, schedule: Q04DX002 (ip), vehicle: Klucel (hydroxypropylcellulose) (HPC)
  T/C: 107 % of control
dose: 400.0 mg/kg/injection, schedule: Q04DX002 (ip), vehicle: Klucel (hydroxypropylcellulose) (HPC)
  T/C: 98 % of control

## NC(=S)c1ccc(C=Nc2ccccc2)cc1
dose: 50.0 mg/kg/injection, schedule: Q01DX001 (ip), vehicle: Klucel (hydroxypropylcellulose) (HPC)
  T/C: 101 % of control
dose: 100.0 mg/kg/injection, schedule: Q01DX001 (ip), vehicle: Klucel (hydroxypropylcellulose) (HPC)
  T/C: 99 % of control
dose: 200.0 mg/kg/injection, schedule: Q01DX001 (ip), vehicle: Klucel (hydroxypropylcellulose) (HPC)
  T/C: 100 % of control

## CCN(CC)C(=O)c1ccncc1C(=O)c1ccncc1
dose: 60.0 mg/kg/injection, schedule: Q01DX005 (ip), vehicle: saline
  T/C: 94 % of control
dose: 120.0 mg/kg/injection, schedule: Q01DX005 (ip), vehicle: saline
  T/C: 100 % of control
dose: 240.0 mg/kg/injection, schedule: Q01DX005 (ip), vehicle: saline
  T/C: 100 % of control

## CN=C(N)N/N=C/c1c2ccccc2c(C)c2ccccc12
dose: 25.0 mg/kg/injection, schedule: Q04DX002 (ip), vehicle: saline
  T/C: 119 % of control
dose: 50.0 mg/kg/injection, schedule: Q04DX002 (ip), vehicle: saline
  T/C: 115 % of control

## CC(C)(C)c1cc2c(c(C(C)(C)C)c1)[O][Sb]([c]1ccccc1)([c]1ccccc1)([c]1ccccc1)[NH]2
[1]
  T/C: 110 % of control
[2]
  T/C: 115 % of control

## CSCNc1ncnc2c1ncn2C1OC(CO)C(O)C1O (stereo not drawn)
dose: 100.0 mg/kg/injection, schedule: Q04DX002 (ip), vehicle: saline with Tween-80
  T/C: 120 % of control

## CC1(C)CCCC12CCN1CCC([N+](=O)[O-])C12 (stereo not drawn)
dose: 11.5 mg/kg/injection, schedule: Q04DX003 (ip), vehicle: saline with Tween-80
  T/C: 100 % of control
dose: 23.0 mg/kg/injection, schedule: Q04DX003 (ip), vehicle: saline with Tween-80
  T/C: 108 % of control
dose: 46.0 mg/kg/injection, schedule: Q04DX003 (ip), vehicle: saline with Tween-80
  T/C: 100 % of control
dose: 92.0 mg/kg/injection, schedule: Q04DX003 (ip), vehicle: saline with Tween-80
  T/C: 108 % of control

## Cc1ccc(S(=O)(=O)OCC2CCCC2COS(=O)(=O)c2ccc(C)cc2)cc1 (stereo not drawn)
dose: 100.0 mg/kg/injection, schedule: Q01DX009 (ip), vehicle: Klucel (hydroxypropylcellulose) (HPC)
  T/C: 100 % of control
dose: 200.0 mg/kg/injection, schedule: Q01DX009 (ip), vehicle: Klucel (hydroxypropylcellulose) (HPC)
  T/C: 106 % of control
dose: 400.0 mg/kg/injection, schedule: Q01DX009 (ip), vehicle: Klucel (hydroxypropylcellulose) (HPC)
  T/C: 105 % of control

## CCOC(=O)CC(=N)C(C#N)C(=O)OCC (stereo not drawn)
dose: 6.25 mg/kg/injection, schedule: Q01DX009 (ip), vehicle: saline with Tween-80
  T/C: 101 % of control
dose: 12.5 mg/kg/injection, schedule: Q01DX009 (ip), vehicle: saline with Tween-80
  T/C: 101 % of control
[3]
  T/C: 99 % of control
[1]
  T/C: 99 % of control

## Nc1c(Cl)sc2ccccc2c1=O
dose: 50.0 mg/kg/injection, schedule: Q01DX005 (ip), vehicle: saline with Tween-80
  T/C: 91 % of control
dose: 100.0 mg/kg/injection, schedule: Q01DX005 (ip), vehicle: saline with Tween-80
  T/C: 91 % of control
dose: 200.0 mg/kg/injection, schedule: Q01DX005 (ip), vehicle: saline with Tween-80
  T/C: 104 % of control

## Cc1cc(NCCCN(C)C)c2ccc3cc(NCCCN(C)C)c(C)nc3c2n1
[3]
  T/C: 96 % of control
[1]
  T/C: 104 % of control
[2]
  T/C: 102 % of control

## Cc1cc2c(=O)[nH]c(N)nc2[nH]1
dose: 12.5 mg/kg/injection, schedule: Q01DX009 (ip), vehicle: suspension in saline
  T/C: 99 % of control
dose: 25.0 mg/kg/injection, schedule: Q01DX009 (ip), vehicle: suspension in saline
  T/C: 115 % of control
[4]
  T/C: 113 % of control and 116 % of control

## c1ccc2[nH]cnc2c1
dose: 20.0 mg/kg/injection, schedule: Q04DX003 (ip), vehicle: other
  T/C: 100 % of control
dose: 40.0 mg/kg/injection, schedule: Q04DX003 (ip), vehicle: other
  T/C: 99 % of control
dose: 40.0 mg/kg/injection, schedule: Q04DX003 (oral), vehicle: other
  T/C: 100 % of control
[4]
  T/C: 98 % of control
dose: 80.0 mg/kg/injection, schedule: Q04DX003 (ip), vehicle: other
  T/C: 95 % of control
dose: 100.0 mg/kg/injection, schedule: Q01DX009 (ip), vehicle: suspension in saline
  T/C: 90 % of control
dose: 100.0 mg/kg/injection, schedule: Q04DX003 (ip), vehicle: saline with Tween-80
  T/C: 100 % of control
dose: 160.0 mg/kg/injection, schedule: Q04DX003 (ip), vehicle: other
  T/C: 100 % of control
dose: 160.0 mg/kg/injection, schedule: Q04DX003 (oral), vehicle: other
  T/C: 104 % of control
dose: 200.0 mg/kg/injection, schedule: Q01DX009 (ip), vehicle: suspension in saline
  T/C: 106 % of control
dose: 200.0 mg/kg/injection, schedule: Q04DX003 (ip), vehicle: saline with Tween-80
  T/C: 100 % of control
dose: 320.0 mg/kg/injection, schedule: Q04DX003 (ip), vehicle: other
  T/C: 100 % of control
dose: 400.0 mg/kg/injection, schedule: Q04DX003 (ip), vehicle: saline with Tween-80
  T/C: 90 % of control

## Cc1ccc2c3c1CCCN3CCC2
dose: 50.0 mg/kg/injection, schedule: Q04DX003 (ip), vehicle: saline
  T/C: 112 % of control
dose: 100.0 mg/kg/injection, schedule: Q04DX003 (ip), vehicle: saline
  T/C: 112 % of control

## N#CC1(NO)CCCC1
dose: 50.0 mg/kg/injection, schedule: Q01DX009 (ip), vehicle: saline
  T/C: 94 % of control
dose: 100.0 mg/kg/injection, schedule: Q01DX009 (ip), vehicle: saline
  T/C: 98 % of control
dose: 200.0 mg/kg/injection, schedule: Q01DX009 (ip), vehicle: saline
  T/C: 89 % of control

## C=C[CH2][Sn]([CH2]C)([CH2]C)[CH2]C=C
dose: 12.5 mg/kg/injection, schedule: Q01DX005 (ip), vehicle: saline
  T/C: 107 % of control
dose: 25.0 mg/kg/injection, schedule: Q01DX005 (ip), vehicle: saline
  T/C: 114 % of control
dose: 100.0 mg/kg/injection, schedule: Q01DX005 (ip), vehicle: saline
  T/C: 154 % of control

## O=C(CCCl)Nc1cccc(CCC(=O)c2cccc(NC(=O)CCCl)c2)c1
dose: 15.0 mg/kg/injection, schedule: Q01DX005 (ip), vehicle: saline with Tween-80
  T/C: 103 % of control
dose: 30.0 mg/kg/injection, schedule: Q01DX005 (ip), vehicle: saline with Tween-80
  T/C: 103 % of control
dose: 60.0 mg/kg/injection, schedule: Q01DX005 (ip), vehicle: saline with Tween-80
  T/C: 102 % of control and 103 % of control
dose: 120.0 mg/kg/injection, schedule: Q01DX005 (ip), vehicle: saline with Tween-80
  T/C: 103 % of control
dose: 240.0 mg/kg/injection, schedule: Q01DX005 (ip), vehicle: saline with Tween-80
  T/C: 110 % of control

## Clc1cccc2c(SCCCCCSc3c4ccccc4nc4c(Cl)cccc34)c3ccccc3nc12
[5]
  T/C: 93 % of control
[6]
  T/C: 93 % of control
[7]
  T/C: 87 % of control

## C/C=C(\C)[C@H](O)C(COCc1ccccc1)NS(=O)(=O)c1ccc(C)cc1 (stereo partly drawn)
[5]
  T/C: 100 % of control
[6]
  T/C: 100 % of control
[7]
  T/C: 92 % of control

From PubChem BioAssay AID330 (DTP/NCI, 2004)
